Experimental data reported in ChEMBL document CHEMBL6153089, “Design, Synthesis, and Biological Evaluation of Thieno[3,2-d]pyrimidine Derivatives as the First Bifunctional PI3Kδ Isoform Selective/Bromodomain and Extra-Terminal Inhibitors” (J Med Chem, 2025).
The source made the active and inactive calls. No cut-off for these calls is given here.

What was measured:
SUD4 [1] = assay: Downregulation of c-Myc expression in human SU-DHL-4 cells at 0.25 to 1 uM incubated for 12 hrs by Western blot analysis; assay type: functional, cell-based; details: dose 0.25-1 µM
[2] = target: PI3-kinase p110-alpha/p85-alpha (Homo sapiens, UniProt P42336); assay: Inhibition of p110alpha/p85alpha (unknown origin) incubated for 2 hrs in presence of ATP by ADP-kinaseGlo reagent based assay; assay type: protein-complex assay
PI3-kinase p110-alpha/p85-alpha, sequence (P27986 whole entry): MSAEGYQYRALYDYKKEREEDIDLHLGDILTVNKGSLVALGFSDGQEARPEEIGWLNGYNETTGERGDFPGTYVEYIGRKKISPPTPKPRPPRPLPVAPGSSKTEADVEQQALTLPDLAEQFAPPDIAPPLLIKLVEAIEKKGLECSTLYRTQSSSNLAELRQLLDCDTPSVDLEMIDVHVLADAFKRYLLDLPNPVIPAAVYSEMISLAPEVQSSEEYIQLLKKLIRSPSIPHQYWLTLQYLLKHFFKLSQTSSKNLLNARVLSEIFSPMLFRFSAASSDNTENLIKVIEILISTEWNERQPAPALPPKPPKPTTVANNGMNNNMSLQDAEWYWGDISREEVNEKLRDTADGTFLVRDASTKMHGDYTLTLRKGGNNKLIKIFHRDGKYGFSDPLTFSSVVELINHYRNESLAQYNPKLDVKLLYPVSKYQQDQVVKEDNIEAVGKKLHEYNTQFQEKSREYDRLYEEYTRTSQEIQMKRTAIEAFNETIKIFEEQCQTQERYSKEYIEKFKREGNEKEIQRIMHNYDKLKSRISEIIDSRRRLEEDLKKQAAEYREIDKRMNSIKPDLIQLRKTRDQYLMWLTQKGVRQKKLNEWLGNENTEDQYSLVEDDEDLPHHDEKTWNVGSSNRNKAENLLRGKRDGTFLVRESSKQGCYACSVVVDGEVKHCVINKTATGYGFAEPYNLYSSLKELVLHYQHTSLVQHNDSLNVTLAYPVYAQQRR
PI3-kinase p110-alpha/p85-alpha, sequence (P42336 whole entry): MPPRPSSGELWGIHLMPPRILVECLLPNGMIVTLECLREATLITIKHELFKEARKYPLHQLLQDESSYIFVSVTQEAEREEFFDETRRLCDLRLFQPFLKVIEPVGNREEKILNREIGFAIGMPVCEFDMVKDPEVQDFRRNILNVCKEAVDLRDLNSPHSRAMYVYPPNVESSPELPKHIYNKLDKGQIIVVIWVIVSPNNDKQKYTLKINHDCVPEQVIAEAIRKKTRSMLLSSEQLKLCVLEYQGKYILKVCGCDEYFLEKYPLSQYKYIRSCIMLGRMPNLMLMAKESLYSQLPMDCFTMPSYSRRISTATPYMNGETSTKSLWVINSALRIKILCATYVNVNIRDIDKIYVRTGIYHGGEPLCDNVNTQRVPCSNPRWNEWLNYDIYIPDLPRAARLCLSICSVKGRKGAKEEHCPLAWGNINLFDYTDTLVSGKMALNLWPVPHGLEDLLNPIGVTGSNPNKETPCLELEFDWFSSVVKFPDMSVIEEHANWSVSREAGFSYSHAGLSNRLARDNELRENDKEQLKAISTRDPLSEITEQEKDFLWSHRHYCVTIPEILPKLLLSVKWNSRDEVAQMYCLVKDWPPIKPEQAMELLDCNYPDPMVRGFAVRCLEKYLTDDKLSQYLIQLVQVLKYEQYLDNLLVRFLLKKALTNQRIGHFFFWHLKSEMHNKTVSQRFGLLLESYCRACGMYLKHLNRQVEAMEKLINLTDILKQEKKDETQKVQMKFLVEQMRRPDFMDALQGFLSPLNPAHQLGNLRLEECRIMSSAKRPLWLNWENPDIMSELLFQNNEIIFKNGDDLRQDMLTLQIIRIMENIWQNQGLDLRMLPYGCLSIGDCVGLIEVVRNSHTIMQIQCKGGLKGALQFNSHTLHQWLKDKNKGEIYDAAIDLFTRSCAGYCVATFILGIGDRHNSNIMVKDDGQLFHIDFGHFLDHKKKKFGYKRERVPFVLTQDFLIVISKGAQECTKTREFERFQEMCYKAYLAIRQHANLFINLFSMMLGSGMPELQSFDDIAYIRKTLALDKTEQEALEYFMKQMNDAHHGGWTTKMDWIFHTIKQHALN

[3] = Clearance in female BALB/c mouse at 1 mg/kg, iv measured after 12 hrs by LC-MS/MS analysis; assay type: ADME, organism-based; details: in vivo
[4] = target: Phosphatidylinositol 4,5-bisphosphate 3-kinase catalytic subunit gamma isoform (Homo sapiens, UniProt P48736); assay: Inhibition of PI3Kgamma (unknown origin) incubated for 2 hrs in presence of ATP by ADP-kinaseGlo reagent based assay
Phosphatidylinositol 4,5-bisphosphate 3-kinase catalytic subunit gamma isoform, sequence (P48736 whole entry, canonical isoform): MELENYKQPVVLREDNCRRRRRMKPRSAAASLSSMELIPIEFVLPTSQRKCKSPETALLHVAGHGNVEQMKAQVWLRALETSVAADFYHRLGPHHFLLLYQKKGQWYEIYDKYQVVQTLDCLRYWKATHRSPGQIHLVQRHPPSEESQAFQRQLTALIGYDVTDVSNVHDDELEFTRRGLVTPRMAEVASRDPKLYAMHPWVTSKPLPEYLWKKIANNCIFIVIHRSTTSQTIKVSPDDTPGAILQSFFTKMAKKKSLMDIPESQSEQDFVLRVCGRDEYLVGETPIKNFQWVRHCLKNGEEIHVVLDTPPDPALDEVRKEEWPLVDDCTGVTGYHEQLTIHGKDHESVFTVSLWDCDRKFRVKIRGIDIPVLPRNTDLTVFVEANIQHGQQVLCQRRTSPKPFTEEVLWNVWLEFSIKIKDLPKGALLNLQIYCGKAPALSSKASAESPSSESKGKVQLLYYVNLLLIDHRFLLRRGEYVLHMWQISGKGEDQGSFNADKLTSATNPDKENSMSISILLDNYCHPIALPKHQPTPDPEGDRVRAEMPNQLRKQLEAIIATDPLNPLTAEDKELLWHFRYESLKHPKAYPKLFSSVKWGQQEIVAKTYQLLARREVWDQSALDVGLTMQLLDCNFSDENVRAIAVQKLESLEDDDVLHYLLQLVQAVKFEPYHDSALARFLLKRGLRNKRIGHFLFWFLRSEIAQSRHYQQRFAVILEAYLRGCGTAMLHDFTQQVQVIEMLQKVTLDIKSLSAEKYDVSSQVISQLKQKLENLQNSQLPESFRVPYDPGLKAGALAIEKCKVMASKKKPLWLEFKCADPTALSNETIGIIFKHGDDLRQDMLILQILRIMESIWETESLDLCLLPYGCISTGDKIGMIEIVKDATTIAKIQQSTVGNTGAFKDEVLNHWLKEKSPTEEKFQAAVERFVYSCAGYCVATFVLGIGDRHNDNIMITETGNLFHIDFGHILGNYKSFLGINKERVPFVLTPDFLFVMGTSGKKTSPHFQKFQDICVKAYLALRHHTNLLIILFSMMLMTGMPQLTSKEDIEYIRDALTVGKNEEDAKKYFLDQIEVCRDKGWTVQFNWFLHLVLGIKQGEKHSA

[5] = target: T1, Bromodomain-containing protein 4 (Homo sapiens, UniProt O60885); assay: Inhibition of His-tagged BRD4-BD2 (unknown origin) incubated for 30 mins in presence of ATP by Alphascreen assay
SUD4 [6] = assay: Induction of apoptosis in human SU-DHL-4 cells assessed as late apoptotic cells at 1 uM incubated for 24 hrs by Annexin V-FITC/PI staining based flow cytometric analysis (reference value: 6.74 %); assay type: functional
[7] = Half-life in female BALB/c mouse at 20 mg/kg, po measured after 24 hrs by LC-MS/MS analysis; assay type: ADME, organism-based; details: in vivo
SU-DHL-6 [8] = assay: Cell cycle arrest in human SU-DHL-6 cells assessed as accumulation of cells at S phase incubated for 12 hrs by PI staining based flow cytometric analysis; assay type: functional; details: dose 0.25-1 µM
[9] = test system: PI3-kinase p110-alpha/p85-alpha (Homo sapiens), P27986+P42336 [E542K]; assay: Inhibition of human p110alpha-E545K mutant/p85alpha at 1 uM relative to control; assay type: protein-complex assay
SU-DHL-6 [10] = assay: Induction of apoptosis in human SU-DHL-6 cells assessed as decrease in Bcl-2 protein expression at 0.25 to 1 uM incubated for 12 hrs by Western blot analysis; assay type: functional, cell-based; details: dose 0.25-1 µM
[11] = target: Phosphatidylinositol 4-phosphate 3-kinase C2 domain-containing subunit alpha (Homo sapiens) (UniProt O00443); assay: Inhibition of human PI3KC2alpha at 1 uM relative to control
SUD4 [12] = assay: Induction of apoptosis in human SU-DHL-4 cells assessed as necrotic cells at 0.25 uM incubated for 24 hrs by Annexin V-FITC/PI staining based flow cytometric analysis (reference value: 0.642 %); assay type: functional
SU-DHL-6 [13] = assay: Induction of apoptosis in human SU-DHL-6 cells assessed as viable cells at 1 uM incubated for 24 hrs by Annexin V-FITC/PI staining based flow cytometric analysis (reference value: 61.2 %); assay type: functional; details: read-out: Activity
SUD4 [14] = assay: Induction of apoptosis in human SU-DHL-4 cells assessed as necrotic cells at 0.5 uM incubated for 24 hrs by Annexin V-FITC/PI staining based flow cytometric analysis (reference value: 0.642 %); assay type: functional
[15] = target: Bromodomain-containing protein 2 (Homo sapiens, UniProt P25440); assay: Inhibition of His-tagged BRD2-BD1 (unknown origin) incubated for 30 mins in presence of ATP by Alphascreen assay
Bromodomain-containing protein 2, sequence (P25440 whole entry): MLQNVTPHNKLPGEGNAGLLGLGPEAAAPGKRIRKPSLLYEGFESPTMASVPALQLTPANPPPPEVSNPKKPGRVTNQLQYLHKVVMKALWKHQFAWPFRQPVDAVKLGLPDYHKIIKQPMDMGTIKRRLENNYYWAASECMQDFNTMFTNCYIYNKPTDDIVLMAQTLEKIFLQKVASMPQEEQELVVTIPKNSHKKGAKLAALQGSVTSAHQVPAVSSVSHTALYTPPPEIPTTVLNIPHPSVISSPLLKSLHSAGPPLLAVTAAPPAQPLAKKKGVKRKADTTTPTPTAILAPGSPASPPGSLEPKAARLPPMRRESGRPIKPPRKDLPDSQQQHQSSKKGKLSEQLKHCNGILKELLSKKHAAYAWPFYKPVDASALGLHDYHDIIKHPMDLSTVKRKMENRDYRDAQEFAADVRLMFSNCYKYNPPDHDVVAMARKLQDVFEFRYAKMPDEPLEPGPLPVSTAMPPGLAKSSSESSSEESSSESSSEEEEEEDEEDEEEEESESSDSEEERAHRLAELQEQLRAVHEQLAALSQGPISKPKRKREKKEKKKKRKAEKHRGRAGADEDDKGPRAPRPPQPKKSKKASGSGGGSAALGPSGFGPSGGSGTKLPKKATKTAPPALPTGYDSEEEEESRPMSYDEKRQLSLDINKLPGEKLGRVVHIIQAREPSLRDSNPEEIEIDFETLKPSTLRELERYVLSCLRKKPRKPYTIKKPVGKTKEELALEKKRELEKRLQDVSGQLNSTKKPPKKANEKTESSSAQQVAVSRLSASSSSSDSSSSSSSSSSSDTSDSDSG

[16] = AUC (0 to t) in female BALB/c mouse at 1 mg/kg, iv measured after 12 hrs by LC-MS/MS analysis; assay type: ADME, organism-based; details: in vivo
SU-DHL-6 [17] = assay: Induction of apoptosis in human SU-DHL-6 cells assessed as early apoptotic cells at 0.25 uM incubated for 24 hrs by Annexin V-FITC/PI staining based flow cytometric analysis (reference value: 32.1 %); assay type: functional
[18] = target: Phosphatidylinositol 4,5-bisphosphate 3-kinase catalytic subunit beta isoform (Homo sapiens, UniProt P42338); assay: Inhibition of PI3Kbeta (unknown origin) incubated for 2 hrs in presence of ATP by ADP-kinaseGlo reagent based assay
Phosphatidylinositol 4,5-bisphosphate 3-kinase catalytic subunit beta isoform, sequence (P42338 whole entry, canonical isoform): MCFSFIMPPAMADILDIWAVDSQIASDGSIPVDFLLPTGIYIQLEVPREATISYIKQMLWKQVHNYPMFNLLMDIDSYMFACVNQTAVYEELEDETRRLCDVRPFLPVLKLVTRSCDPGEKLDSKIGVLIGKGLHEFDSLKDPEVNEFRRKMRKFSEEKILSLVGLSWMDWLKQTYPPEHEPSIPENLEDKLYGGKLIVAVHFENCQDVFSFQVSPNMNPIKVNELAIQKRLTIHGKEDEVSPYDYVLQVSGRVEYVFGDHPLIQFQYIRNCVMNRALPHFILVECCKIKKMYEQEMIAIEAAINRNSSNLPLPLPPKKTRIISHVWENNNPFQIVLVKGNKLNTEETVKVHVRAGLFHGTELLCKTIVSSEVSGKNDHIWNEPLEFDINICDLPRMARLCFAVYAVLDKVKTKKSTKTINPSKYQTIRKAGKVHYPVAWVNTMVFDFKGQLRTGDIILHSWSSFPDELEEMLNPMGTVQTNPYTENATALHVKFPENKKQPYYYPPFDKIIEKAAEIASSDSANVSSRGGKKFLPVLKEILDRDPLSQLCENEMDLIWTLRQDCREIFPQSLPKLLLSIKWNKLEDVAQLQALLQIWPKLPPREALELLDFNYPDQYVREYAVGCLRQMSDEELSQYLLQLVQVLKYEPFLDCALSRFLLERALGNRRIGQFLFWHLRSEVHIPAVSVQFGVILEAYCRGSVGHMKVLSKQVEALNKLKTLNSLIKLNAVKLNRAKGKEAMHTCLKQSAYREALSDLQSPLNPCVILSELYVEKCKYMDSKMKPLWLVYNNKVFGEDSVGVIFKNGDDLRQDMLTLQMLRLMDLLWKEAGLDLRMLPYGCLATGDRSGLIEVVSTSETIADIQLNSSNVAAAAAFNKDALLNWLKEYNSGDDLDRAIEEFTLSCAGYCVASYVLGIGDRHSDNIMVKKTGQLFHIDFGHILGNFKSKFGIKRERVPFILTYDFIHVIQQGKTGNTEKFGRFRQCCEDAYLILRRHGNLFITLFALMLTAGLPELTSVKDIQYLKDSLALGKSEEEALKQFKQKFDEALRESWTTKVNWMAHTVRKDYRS

SU-DHL-4 = assay: Inhibition of AKT phosphorylation in human SU-DHL-4 cells at 0.25 to 1 uM incubated for 12 hrs by Western blot analysis; assay type: cell-based; details: dose 0.25-1 µM
[19] = target: Phosphatidylinositol 3-kinase C2 domain-containing subunit gamma (Homo sapiens) (UniProt O75747); assay: Inhibition of human PI3KC2gamma at 1 uM relative to control
[20] = target: T1, Bromodomain-containing protein 4; assay: Inhibition of His-tagged BRD4-BD1 (unknown origin) at 10 nM incubated for 30 mins by Alphascreen assay relative to control
[21] = target: PI3K p110 beta/p85 alpha (Homo sapiens) (UniProt P27986+P42338); assay: Inhibition of human p110beta/p85alpha at 1 uM relative to control; assay type: protein-complex assay
SU-DHL-6 [22] = assay: Induction of apoptosis in human SU-DHL-6 cells assessed as late apoptotic cells at 1 uM incubated for 24 hrs by Annexin V-FITC/PI staining based flow cytometric analysis (reference value: 6.43 %); assay type: functional
SU-DHL-6 [23] = assay: Induction of apoptosis in human SU-DHL-6 cells assessed as late apoptotic cells at 0.25 uM incubated for 24 hrs by Annexin V-FITC/PI staining based flow cytometric analysis (reference value: 6.43 %); assay type: functional
[24] = Tmax in female BALB/c mouse at 20 mg/kg, po measured after 24 hrs by LC-MS/MS analysis; assay type: ADME, organism-based; details: in vivo
SUD4 [25] = assay: Induction of apoptosis in human SU-DHL-4 cells assessed as early apoptotic cells at 0.25 uM incubated for 24 hrs by Annexin V-FITC/PI staining based flow cytometric analysis (reference value: 25.3 %); assay type: functional
SU-DHL-6 [26] = assay: Induction of apoptosis in human SU-DHL-6 cells assessed as necrotic cells at 0.5 uM incubated for 24 hrs by Annexin V-FITC/PI staining based flow cytometric analysis (reference value: 0.246 %); assay type: functional
SU-DHL-6 [27] = assay: Induction of apoptosis in human SU-DHL-6 cells assessed as late apoptotic cells at 0.5 uM incubated for 24 hrs by Annexin V-FITC/PI staining based flow cytometric analysis (reference value: 6.43 %); assay type: functional
SU-DHL-6 [28] = assay: Induction of apoptosis in human SU-DHL-6 cells assessed as necrotic cells at 0.25 uM incubated for 24 hrs by Annexin V-FITC/PI staining based flow cytometric analysis (reference value: 0.246 %); assay type: functional
[29] = Toxicity in female BALB/c mouse model xenografted with human SU-DHL-6 cells assessed as effect on lung histopathology at 20 mg/kg, po administered once daily via gavage for 15 days by H and E staining based analysis; assay type: organism-based; details: in vivo, 360 h, time 15 day
[30] = Toxicity in female BALB/c mouse model xenografted with human SU-DHL-6 cells assessed as effect on spleen histopathology at 20 mg/kg, po administered once daily via gavage for 15 days by H and E staining based analysis; assay type: organism-based; details: in vivo, 360 h, time 15 day
[31] = target: PI3-kinase p110-delta/p85-alpha (Homo sapiens) (UniProt P27986+O00329); assay: Inhibition of p110delta/p85alpha (unknown origin) at 100 nM incubated for 2 hrs in presence of ATP by ADP-kinaseGlo reagent based assay relative to control; assay type: protein-complex assay
[32] = Toxicity in female BALB/c mouse model xenografted with human SU-DHL-6 cells assessed as effect on kidney histopathology at 20 mg/kg, po administered once daily via gavage for 15 days by H and E staining based analysis; assay type: organism-based; details: in vivo, 360 h, time 15 day

**Q.** For `Cn1cc(-c2nc(N3CCOCC3)c3sc(CN4CCC(C(C)(C)O)CC4)cc3n2)c2cc[nH]c2c1=O`, which Activity (SUD4 [1]) is on record?
**A.** Its Activity is “Active”.

**Q.** And the IC50 [2]?
**A.** Its IC50 is 6130 nM.

**Q.** And the clearance [3]?
**A.** Its clearance is 112 mL/min/kg.

**Q.** And the IC50 [4]?
**A.** Its IC50 is 915 nM.

**Q.** And the IC50 [5]?
**A.** The IC50 was 2 nM.

**Q.** And the Activity (SUD4 [6])?
**A.** Its Activity is 26.2%.

**Q.** And the half-life [7]?
**A.** Its half-life is 3.8 h.

**Q.** What about the Activity (SU-DHL-6 [8]) of the same molecule?
**A.** The Activity was “Dose-dependent-effect”.

**Q.** And the inhibition [9]?
**A.** Its inhibition is 17.3%.

**Q.** And the Activity (SU-DHL-6 [10])?
**A.** The Activity was “Active; Modest Effect Observed”.

**Q.** And the inhibition [11]?
**A.** The inhibition was 3.4%.

**Q.** What about the Activity (SUD4 [12]) of the same molecule?
**A.** Its Activity is 1.34%.

**Q.** And the viability at 1 µM (SU-DHL-6 [13])?
**A.** The viability at 1 µM was 41.8%.

**Q.** What about the Activity (SUD4 [14]) of the same molecule?
**A.** Its Activity is 2.8%.

**Q.** What about the IC50 [15] of the same molecule?
**A.** Its IC50 is 18 nM.

**Q.** What about the AUC(0-t) at 12 h [16] of the same molecule?
**A.** Its AUC(0-t) at 12 h is 145 ng·h/mL.

**Q.** What about the Activity (SU-DHL-6 [17]) of the same molecule?
**A.** Its Activity is 39.5%.

**Q.** And the IC50 [18]?
**A.** Its IC50 is 4750 nM.

**Q.** What about the inhibition (SU-DHL-4) of the same molecule?
**A.** The inhibition was “Active”.

**Q.** What about the inhibition [19] of the same molecule?
**A.** Its inhibition is 15.6%.

**Q.** What about the inhibition [20] of the same molecule?
**A.** The inhibition was 33.7%.

**Q.** And the inhibition [21]?
**A.** Its inhibition is 44.3%.

**Q.** And the Activity (SU-DHL-6 [22])?
**A.** The Activity was 8.72%.

**Q.** And the Activity (SU-DHL-6 [23])?
**A.** The Activity was 6.32%.

**Q.** What about the Tmax [24] of the same molecule?
**A.** Its Tmax is 0.5 h.

**Q.** What about the Activity (SUD4 [25]) of the same molecule?
**A.** Its Activity is 32.4%.

**Q.** What about the Activity (SU-DHL-6 [26]) of the same molecule?
**A.** Its Activity is 0.67%.

**Q.** And the Activity (SU-DHL-6 [27])?
**A.** Its Activity is 7.86%.

**Q.** And the Activity (SU-DHL-6 [28])?
**A.** The Activity was 0.481%.

**Q.** What about the Activity [29] of the same molecule?
**A.** Its Activity is “Non-toxic”.

**Q.** And the Activity [30]?
**A.** The Activity was “Non-toxic”.

**Q.** What about the inhibition [31] of the same molecule?
**A.** Its inhibition is 41.6%.

**Q.** What about the Activity [32] of the same molecule?
**A.** The Activity was “Non-toxic”.
